Columns and labels:
[1] = molecular target: T1, EP2 (Homo sapiens, UniProt P43116); assay: EP2 binding (Ki)
Source text: (§1) U.S. patent application Ser. No. 11/553,143, filed on Oct. 26, 2006, incorporated by reference herein, describes the methods used to obtain the in vitro data in the table below.

[2] = molecular target: T2, hEP3A (Homo sapiens, UniProt P43115); assay: Other receptors functional EC50, hEP3A; type: cell-based
T2 sequence (P43115 1-390): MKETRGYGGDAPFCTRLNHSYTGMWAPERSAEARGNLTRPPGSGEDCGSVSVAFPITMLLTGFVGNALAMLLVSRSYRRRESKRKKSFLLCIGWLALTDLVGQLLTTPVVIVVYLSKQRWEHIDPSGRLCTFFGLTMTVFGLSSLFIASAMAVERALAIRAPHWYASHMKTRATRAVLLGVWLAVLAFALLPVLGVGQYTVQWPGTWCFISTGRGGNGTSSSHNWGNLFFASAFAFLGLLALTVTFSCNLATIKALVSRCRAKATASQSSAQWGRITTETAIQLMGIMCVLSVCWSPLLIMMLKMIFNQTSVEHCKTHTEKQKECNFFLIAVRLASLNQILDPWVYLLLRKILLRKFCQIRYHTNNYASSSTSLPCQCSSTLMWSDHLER
Source text: as §1

[3] = molecular target: EP4 (Homo sapiens, UniProt P35408); assay: EP4 binding (KI)
Sequence of EP4 (P35408 whole entry): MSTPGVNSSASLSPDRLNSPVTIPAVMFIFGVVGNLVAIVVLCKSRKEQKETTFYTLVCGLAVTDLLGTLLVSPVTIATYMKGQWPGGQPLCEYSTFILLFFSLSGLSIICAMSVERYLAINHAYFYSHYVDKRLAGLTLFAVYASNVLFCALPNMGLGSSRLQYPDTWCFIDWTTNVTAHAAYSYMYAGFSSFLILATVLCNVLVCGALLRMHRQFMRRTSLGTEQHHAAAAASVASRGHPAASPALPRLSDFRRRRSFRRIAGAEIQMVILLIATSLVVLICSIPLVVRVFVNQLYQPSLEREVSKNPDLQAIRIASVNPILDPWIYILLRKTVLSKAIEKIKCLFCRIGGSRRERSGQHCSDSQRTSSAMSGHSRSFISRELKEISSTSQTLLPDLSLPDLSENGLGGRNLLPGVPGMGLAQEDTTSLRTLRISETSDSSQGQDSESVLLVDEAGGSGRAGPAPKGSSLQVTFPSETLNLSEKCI
Source text: as §1

[4] = molecular target: T1, EP2; assay: EP2 flipr assay; type: cell-based
Source text: as §1

[5] = molecular target: T1, EP2; assay: EP2 cAMP assay; type: cell-based
Source text: as §1

[6] = test system: normotensive dogs; assay: Intraocular pressure and ocular surface hyperemia in normotensive dogs; type: in vivo, dog; settings: once daily for 5 days
Description: U.S. Pat. No. 7,091,231 describes the methods used to carry out the tests reported below.
[…] The maximum intraocular pressure (IOP) decrease from baseline was 6.3 mmHg (39%) at 4 h; the maximum ocular surface hyperemia (OSH) score was 1.6 at 28 hours. This compound was also tested in laser-induced hypertensive monkeys, using one single day dose. At 0.01%, the maximum IOP decrease from baseline was 23 mmHg (61%) at 24 hours.

[7] = molecular target: T3, hDP (Homo sapiens, UniProt Q13258); assay: Other receptors functional EC50, hDP; type: cell-based
T3 sequence (Q13258 1-359): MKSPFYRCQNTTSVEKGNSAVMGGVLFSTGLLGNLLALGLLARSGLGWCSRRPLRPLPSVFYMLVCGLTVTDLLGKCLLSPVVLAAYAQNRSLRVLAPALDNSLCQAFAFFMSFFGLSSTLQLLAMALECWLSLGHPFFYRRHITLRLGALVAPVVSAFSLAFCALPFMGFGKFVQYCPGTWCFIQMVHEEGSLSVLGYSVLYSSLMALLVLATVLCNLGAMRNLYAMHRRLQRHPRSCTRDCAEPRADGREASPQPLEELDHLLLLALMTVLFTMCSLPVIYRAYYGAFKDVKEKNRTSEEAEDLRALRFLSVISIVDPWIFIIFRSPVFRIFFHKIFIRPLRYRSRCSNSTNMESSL
Source text: as §1

T1 sequence (P43116 whole entry): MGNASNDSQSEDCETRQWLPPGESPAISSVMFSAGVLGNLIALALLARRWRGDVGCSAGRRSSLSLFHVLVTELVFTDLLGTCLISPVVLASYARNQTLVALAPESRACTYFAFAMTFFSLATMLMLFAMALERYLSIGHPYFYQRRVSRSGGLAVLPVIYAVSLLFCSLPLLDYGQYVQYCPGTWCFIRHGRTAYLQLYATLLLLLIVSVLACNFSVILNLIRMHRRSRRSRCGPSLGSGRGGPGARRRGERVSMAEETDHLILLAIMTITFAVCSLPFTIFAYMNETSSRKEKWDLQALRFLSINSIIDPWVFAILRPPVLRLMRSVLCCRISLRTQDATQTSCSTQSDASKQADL

Row | SMILES | Ki [1] [nM] | EC50 [2] [nM] | Ki [3] [nM] | EC50 [4] [nM] | EC50 [5] [nM] | maximum ocular surface hyperemia (OSH) score ([6]; 0.001%, maximum at 50 hours) | maximum ocular surface hyperemia (OSH) score ([6]; 0.01%, maximum at 26 hours) | maximum ocular surface hyperemia (OSH) score ([6]; 0.01%, maximum at 28 hours) | EC50 [7] [nM]
1 | CCCCCC(F)c1ccc(N2C(=O)CC[C@@H]2COCc2csc(C(=O)O)c2)cc1 (stereo partly drawn) [compound 48, (R)-4-(((1-(4-(1-fluorohexyl)phenyl)-5-oxopyrrolidin-2-yl)methoxy)methyl)thiophene-2-carboxylic acid] | 1930 | 3410 | > 10000 | 5010 | 40 | – | – | – | –
2 | CCCCCC(O)c1ccc(N2C(=O)CC[C@@H]2COCc2cc(C(=O)O)cs2)cc1 (stereo partly drawn) [compound 42, (R)-5-(((1-(4-(1-hydroxyhexyl)phenyl)-5-oxopyrrolidin-2-yl)methoxy)methyl)thiophene-3-carboxylic acid] | 448 | 1520 | > 10000 | 2240 | 5.5 | – | – | – | –
3 | CCCCCC(O)c1ccc(N2C(=O)CC[C@@H]2COCc2csc(C(=O)O)c2)cc1 (stereo partly drawn) [compound 47, (R)-4-(((1-(4-(1-hydroxyhexyl)phenyl)-5-oxopyrrolidin-2-yl)methoxy)methyl)thiophene-2-carboxylic acid] | 784 | 1340 | > 10000 | 2530 | 18 | – | – | – | –
4 | CCCCCC(O)c1ccc(N2C(=O)CC[C@@H]2CCSc2nc(C(=O)OC(C)C)cs2)cc1 (single isomer, unassigned) [compound 67] | – | – | – | – | – | 1.9 | 2.0 | – | –
5 | CCCCCC(O)c1ccc(N2C(=O)CC[C@@H]2CCSc2nc(C(=O)OC(C)C)cs2)cc1 (stereo partly drawn) [compound 66, Isopropyl 2-(2-((2R)-1-(4-(1-hydroxyhexyl)phenyl)-5-oxopyrrolidin-2-yl)ethylthio)thiazole-4-carboxylate] | – | – | – | – | – | – | – | 1.6 | –
6 | CCCCCC(F)c1ccc(N2C(=O)CC[C@@H]2COCc2cc(C(=O)O)cs2)cc1 (stereo partly drawn) [compound 43, (R)-5-(((1-(4-(1-fluorohexyl)phenyl)-5-oxopyrrolidin-2-yl)methoxy)methyl)thiophene-3-carboxylic acid] | 256 | 1960 | > 10000 | 3850 | 7 | – | – | – | –
7 | CCCCCCC(O)c1ccc(N2C(=O)CC[C@@H]2CCSc2nc(C(=O)O)cs2)cc1 (single isomer, unassigned) [compound 36] | 13 | 11 | > 10000 | 57 | 1.2 | – | – | – | 11900
8 | CCCCCC(O)c1ccc(N2C(=O)CC[C@@H]2CCSc2nc(C(=O)OC(C)C)cs2)cc1 (single isomer, unassigned) [compound 68] | – | – | – | – | – | – | – | 2.0 | –
9 | CCCCCC(O)c1ccc(N2C(=O)CC[C@@H]2CCSc2nc(C(=O)O)cs2)cc1 (single isomer, unassigned) [compound 18] | 15 | 46 | – | 7 | 0.09 | – | – | – | 7170
10 | CCCCCC(O)c1ccc(N2C(=O)CC[C@@H]2CCCc2nc(C(=O)O)cs2)cc1 (stereo partly drawn) [compound 63, (S)-2-(3-(1-(4-(1-hydroxyhexyl)phenyl)-5-oxopyrrolidin-2-yl)propyl)thiazole-4-carboxylic acid] | 115 | 42 | – | 37 | 0.8 | – | – | – | > 10000

— US7589213B2 (priority 2007, dated 2009)
